# Tests used:
# Adenosine receptor A1 = target: T1, Adenosine receptor A1 (Rattus norvegicus, UniProt P25099); assay: Displacement of [3H]N6-PIA (Kd, 1 nM) binding from Adenosine A1 receptor in whole rat brain membranes; type: cell membranes
# T1 sequence (P25099 whole entry): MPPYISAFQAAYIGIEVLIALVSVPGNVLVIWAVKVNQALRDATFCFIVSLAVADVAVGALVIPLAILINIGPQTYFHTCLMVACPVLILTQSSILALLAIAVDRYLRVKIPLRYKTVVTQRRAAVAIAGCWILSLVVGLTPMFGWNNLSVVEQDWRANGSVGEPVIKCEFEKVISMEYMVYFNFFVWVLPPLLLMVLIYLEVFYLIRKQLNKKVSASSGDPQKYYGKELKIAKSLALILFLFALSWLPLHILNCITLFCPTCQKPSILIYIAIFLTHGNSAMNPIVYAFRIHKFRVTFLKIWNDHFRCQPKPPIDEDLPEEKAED
# Adenosine receptor A2a = Adenosine receptor A2a (Rattus norvegicus, UniProt P30543); assay: Displacement of [3H]CGS-21680 (Kd, 14.9 nM) from A2A receptor in rat striatal membranes; type: cell membranes, Membrane
# Adenosine receptor A2a, sequence (P30543 whole entry): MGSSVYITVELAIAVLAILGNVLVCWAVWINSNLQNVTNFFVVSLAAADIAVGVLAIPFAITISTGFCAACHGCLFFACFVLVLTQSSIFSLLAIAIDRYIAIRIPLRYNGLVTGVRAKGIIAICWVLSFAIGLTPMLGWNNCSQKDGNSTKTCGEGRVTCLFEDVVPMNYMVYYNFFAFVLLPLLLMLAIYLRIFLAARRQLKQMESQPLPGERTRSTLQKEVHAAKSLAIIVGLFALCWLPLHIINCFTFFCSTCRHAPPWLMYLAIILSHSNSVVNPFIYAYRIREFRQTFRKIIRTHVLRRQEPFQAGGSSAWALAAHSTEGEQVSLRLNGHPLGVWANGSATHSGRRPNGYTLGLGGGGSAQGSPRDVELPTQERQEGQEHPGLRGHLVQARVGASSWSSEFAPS
Ki (Adenosine receptor A1),Ki (Adenosine receptor A2a),SMILES
486 nM,2120 nM,C[C@@H](Nc1nc(N)c2cnn(-c3ccccc3)c2n1)C(N)=O
49.1 nM,648 nM,C[C@H](Nc1nc(N)c2cnn(-c3ccccc3)c2n1)C(N)=O
84 nM,930 nM,CC(Nc1nc(N)c2cnn(-c3ccccc3)c2n1)C(N)=O (racemic)

# From ChEMBL document CHEMBL1133781, “High-pressure synthesis of enantiomerically pure C-6 substituted pyrazol” (Bioorg Med Chem Lett, 2001)
